How the values were obtained:
[1] = biological target: T1, Polyisoprenylated methylated protein methyl esterase (PMPMEase; human carboxylesterase 1, hCE1) (Homo sapiens, UniProt P23141); experiment: HPLC assay of RD-PNB hydrolysis in prostate cancer cell lysates (PC-3 value); assay type: biochemical
T1 construct: gene CES1
T1 sequence (P23141 18-567): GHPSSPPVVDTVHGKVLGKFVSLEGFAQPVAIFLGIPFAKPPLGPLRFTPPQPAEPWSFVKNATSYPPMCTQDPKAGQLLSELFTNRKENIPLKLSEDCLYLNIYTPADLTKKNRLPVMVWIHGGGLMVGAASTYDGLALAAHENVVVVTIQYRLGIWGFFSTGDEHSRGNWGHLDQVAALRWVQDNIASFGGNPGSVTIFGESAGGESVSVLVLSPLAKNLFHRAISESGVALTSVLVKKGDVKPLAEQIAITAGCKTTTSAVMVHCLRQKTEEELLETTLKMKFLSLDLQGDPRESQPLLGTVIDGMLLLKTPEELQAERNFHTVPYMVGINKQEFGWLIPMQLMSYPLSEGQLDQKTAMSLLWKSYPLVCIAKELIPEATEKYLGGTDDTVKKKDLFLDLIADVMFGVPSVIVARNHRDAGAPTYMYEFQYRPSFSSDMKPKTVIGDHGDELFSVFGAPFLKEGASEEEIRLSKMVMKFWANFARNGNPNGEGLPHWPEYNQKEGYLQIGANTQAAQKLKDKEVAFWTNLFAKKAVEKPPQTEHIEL

[2] = biological target: T1, Polyisoprenylated methylated protein methyl esterase (PMPMEase; human carboxylesterase 1, hCE1); experiment: HPLC-UV detection of substrate hydrolysis by prostate cell lysates; assay type: cell-based

Row | SMILES | IC50 [1] [µM] | HPLC-UV detection of substrate hydrolysis by prostate cell lysates [2]
1 | CC(C)=CCC/C(C)=C/CC/C(C)=C/CSCCS(=O)(=O)F [L-28, 2-trans, trans-farnesylthioethanesulfonyl fluoride] | 3 | –
2 | COC(=O)[C@H](CSC/C=C(\C)CC/C=C(\C)CCC=C(C)C)NC(=O)c1ccc([N+](=O)[O-])cc1 [RD-PNB, N-(4-nitrobenzoyl)-S-trans, trans-farnesyl-L-cysteine methyl ester] | – | Incubation of the specific PMPMEase substrate, RD-PNB, with lysates from the respective cell lines resulted in the hydrolysis

From publication PMC4154947, “Polyisoprenylated methylated protein methyl esterase as a putative drug target for androgen-insensitive prostate cancer” (ecancermedicalscience, 2014)
